Publication PMC6121621, “A Short Half-Life αIIbβ3 Antagonist ANTP266 Reduces Thrombus Formation” (International Journal of Molecular Sciences, 2018)

Target: T1, integrin αIIbβ3 (Homo sapiens, UniProt P05106+P08514)
T1 construct: gene ITGA2B; Purified human integrin αIIbβ3; with integrin β3 (ITGB3, P05106)
Experiment: ELISA: inhibition of purified human αIIbβ[…] binding to immobilized fibrinogen

T1 sequence (P08514 32-887): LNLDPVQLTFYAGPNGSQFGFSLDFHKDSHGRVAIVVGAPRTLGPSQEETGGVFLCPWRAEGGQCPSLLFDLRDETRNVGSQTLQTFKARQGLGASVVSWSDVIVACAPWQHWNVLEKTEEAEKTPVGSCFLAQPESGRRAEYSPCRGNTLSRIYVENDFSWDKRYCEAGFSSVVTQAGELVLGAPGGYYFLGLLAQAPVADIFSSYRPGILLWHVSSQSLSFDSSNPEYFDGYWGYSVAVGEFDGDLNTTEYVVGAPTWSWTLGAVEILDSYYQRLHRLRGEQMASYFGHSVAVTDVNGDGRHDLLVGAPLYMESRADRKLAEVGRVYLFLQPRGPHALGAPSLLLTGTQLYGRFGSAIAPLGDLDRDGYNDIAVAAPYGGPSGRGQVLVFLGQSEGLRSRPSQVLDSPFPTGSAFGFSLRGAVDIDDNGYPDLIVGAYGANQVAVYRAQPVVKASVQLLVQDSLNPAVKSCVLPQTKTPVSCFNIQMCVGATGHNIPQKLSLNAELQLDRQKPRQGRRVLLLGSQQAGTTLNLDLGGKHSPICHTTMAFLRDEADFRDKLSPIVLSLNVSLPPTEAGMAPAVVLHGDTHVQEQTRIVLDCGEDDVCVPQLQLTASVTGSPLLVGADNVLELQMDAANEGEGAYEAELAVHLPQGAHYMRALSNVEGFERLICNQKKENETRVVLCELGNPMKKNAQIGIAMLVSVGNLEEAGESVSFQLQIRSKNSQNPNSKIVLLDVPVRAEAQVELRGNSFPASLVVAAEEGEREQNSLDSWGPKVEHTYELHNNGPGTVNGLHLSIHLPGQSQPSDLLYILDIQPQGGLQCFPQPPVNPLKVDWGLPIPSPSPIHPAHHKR
T1 sequence (P08514 891-1039): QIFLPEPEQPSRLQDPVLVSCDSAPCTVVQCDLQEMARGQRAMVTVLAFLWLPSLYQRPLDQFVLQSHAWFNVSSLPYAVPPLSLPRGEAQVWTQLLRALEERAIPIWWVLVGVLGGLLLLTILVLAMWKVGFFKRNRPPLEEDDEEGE
T1 sequence (P05106 27-788): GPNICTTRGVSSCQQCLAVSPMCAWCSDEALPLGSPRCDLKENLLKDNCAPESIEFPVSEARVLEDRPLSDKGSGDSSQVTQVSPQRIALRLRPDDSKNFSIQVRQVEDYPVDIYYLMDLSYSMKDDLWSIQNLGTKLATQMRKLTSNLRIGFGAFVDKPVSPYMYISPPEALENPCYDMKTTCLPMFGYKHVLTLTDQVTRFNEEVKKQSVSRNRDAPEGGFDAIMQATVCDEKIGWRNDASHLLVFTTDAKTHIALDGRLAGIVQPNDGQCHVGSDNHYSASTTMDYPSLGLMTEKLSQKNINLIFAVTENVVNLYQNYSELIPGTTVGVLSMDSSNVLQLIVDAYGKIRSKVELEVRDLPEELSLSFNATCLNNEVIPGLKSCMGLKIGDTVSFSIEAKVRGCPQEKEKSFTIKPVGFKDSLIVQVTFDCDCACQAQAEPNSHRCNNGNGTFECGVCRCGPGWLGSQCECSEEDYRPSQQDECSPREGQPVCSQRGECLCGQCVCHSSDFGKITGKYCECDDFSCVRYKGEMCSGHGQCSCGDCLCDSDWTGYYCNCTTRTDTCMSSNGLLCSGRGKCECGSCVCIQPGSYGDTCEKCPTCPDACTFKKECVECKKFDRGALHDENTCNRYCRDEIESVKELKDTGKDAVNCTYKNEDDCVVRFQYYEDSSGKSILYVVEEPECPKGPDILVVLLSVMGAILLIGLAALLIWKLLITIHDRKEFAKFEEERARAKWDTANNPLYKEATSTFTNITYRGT

IC50: 370 nM
Compound: COc1ccc(S(=O)(=O)NC(Cc2ccc3cc(OCCN4CCNCC4)ccc3c2)C(=O)O)cc1 (stereo not shown) [ANTP266, 2-((4-methoxyphenyl)sulfonamido)-3-(6-(2-(piperazin-1-yl)ethoxy)naphthalene-2-yl) propanoic acid]
